Laboratory results published in US11279737B2, “Antimicrobial peptide variants and uses thereof” (ANTINBIO, INC., priority 2019, dated 2022).
Values after ≈ are worked out from the molar mass of the structure shown. Where a SMILES comes first, the peptide text is derived from it. Bridges are numbered along the chain shown (N, C = ends).

Experiments:
[1] = tested on: S. aureus ATCC 6538; settings: for Minimal inhibitory concentration (MIC): ATCC 6538; for antimicrobial activity compared to wild type hegrisin (in words): S. aureus ATCC 6538, lower MIC values
[2] = tested on: S. aureus MRSA ATCC 43300; settings: for Minimal inhibitory concentration (MIC): ATCC 43300
[3] = tested on: S. epidermidis ATCC 14990; settings: for Minimal inhibitory concentration (MIC): ATCC 14990
[4] = tested on: S. aureus ATCC 6538; assay: inhibition zone assay; settings: 10 μg peptide per hole, 37° C., 16-18 hours
[5] = tested on: human erythrocytes; assay: hemolytic assay; assay type: cell-based; settings: FIG. 2; for cell lysis (hemolysis) of human erythrocytes: peptide 0.5-500 μg/ml, 37° C., 60 minutes
Protocol: For the hemolysis assays, human erythrocytes were obtained from healthy donors, washed 3 times using sterilized PBS and re-suspended to a concentration of 2% (v/v) with PBS. The hegrisin, HCN2016-01 peptide, and plectasin (control) were diluted to concentrations of 500, 250, 125, 62.5, 32, 16, 8, 4, 2, 1, and 0.5 μg/ml. A 100 μL solution of each peptide and a 100 μL suspension of red blood cells were mixed and added to the wells of a 96-well plate. PBS was used as negative control and Triton X-100 was used as a positive control.
The samples were incubated at 37° C. for 60 minutes and gently stirred during the incubation period. Then, the samples were centrifuged at 2000 rpm for 5 minutes. A total of 100 μL of the supernatant in each well was transferred to a new 96-well plate and absorbance was measured at 490 nm using a microplate reader (Molecular Devices, USA).
For hemolysis assays, human erythrocytes were obtained from healthy donors, washed 3 times using sterilized PBS, and re-suspended to a concentration of 2% (v/v) with PBS. The HCN2016-01 peptide (SEQ ID NO: 2) and plectasin (control) were diluted to concentrations of 500; 250; 125; 62.5; 32; 16; 8; 4; 2; 1; and 0.5 μg/ml. A 100 μL of each peptide solution was mixed with a 100 μL solution of a red blood cell suspension and added to separate wells of a 96-well plate. PBS was used as negative control and Triton X-100 was used as a positive control. The samples were incubated at 37° C. for 60 minutes and gently stirred during the incubation period. The samples were then centrifuged at 2000 rpm for 5 minutes. A total of 100 μL of the supernatant in each well was transferred to a new 96-well plate and absorbance was measured at 490 nm using a microplate reader (Molecular Devices, USA).

| Compound | Minimal inhibitory concentration (MIC) [1] | antimicrobial activity compared to wild type hegrisin (in words) [1] | Minimal inhibitory concentration (MIC) [2] | antimicrobial activity compared to wild type hegrisin (in words) ([2]; S. aureus MRSA ATCC 43300) | Minimal inhibitory concentration (MIC) [3] | antimicrobial activity compared to wild type hegrisin (in words) ([3]; S. epidermidis ATCC 14990) | Activity (antimicrobial activity relative to unmodified hegrisin, zones of growth inhibition) [4] | cell lysis (hemolysis) of human erythrocytes [5] | change of cell lysis with rising concentration ([5]; concentration increased from 62.5 μg/ml to 500 μg/ml) |
| --- | --- | --- | --- | --- | --- | --- | --- | --- | --- |
| CC[C@H](C)[C@@H]1NC(=O)CNC(=O)CNC(=O)[C@H](CC(C)C)NC(=O)[C@H](CCCCN)NC(=O)[C@@H]2CSSC[C@H](NC(=O)[C@H](CO)NC(=O)[C@H](Cc3c[nH]c4ccccc34)NC(=O)CN)C(=O)NCC(=O)N[C@@H](Cc3ccccc3)C(=O)N[C@@H](Cc3ccccc3)C(=O)NCC(=O)NCC(=O)N[C@@H](CC(N)=O)C(=O)N[C@@H](CC(=O)O)C(=O)N[C@@H](CCC(=O)O)C(=O)N3CCC[C@H]3C(=O)N[C@H]3CSSC[C@H](NC1=O)C(=O)N[C@@H](CCCCN)C(=O)N[C@H](C(=O)N[C@@H](Cc1ccc(O)cc1)C(=O)O)CSSC[C@H](NC(=O)[C@H](Cc1c[nH]cn1)NC(=O)[C@H](CCC(N)=O)NC(=O)[C@H](Cc1c[nH]cn1)NC3=O)C(=O)N[C@@H](CCCCN)C(=O)N[C@@H](CO)C(=O)N[C@@H]([C@@H](C)CC)C(=O)N[C@@H](CCCNC(=N)N)C(=O)NCC(=O)N[C@@H](Cc1ccc(O)cc1)C(=O)N[C@@H](CCCNC(=N)N)C(=O)NCC(=O)NCC(=O)N[C@@H](Cc1ccc(O)cc1)C(=O)N2 [HCN2016-04] (H-GWSCGFFGGNDEPCHQHCKSIRGYRGGYCKLGGICKCY-OH; disulfide 4-29, 14-35, 18-37 (inferred); N-terminus and C-terminus assumed) | 0.40 µg/mL (≈ 0.0956 µM) | improved antimicrobial activity | 0.86 µg/mL (≈ 0.206 µM) | improved antimicrobial activity | 0.33 µg/mL (≈ 0.0789 µM) | improved antimicrobial activity | 2 |  |  |
| CC[C@H](C)[C@@H]1NC(=O)CNC(=O)CNC(=O)[C@H](Cc2ccccc2)NC(=O)[C@H](CCCCN)NC(=O)[C@@H]2CSSC[C@H](NC(=O)CNC(=O)[C@H](Cc3c[nH]c4ccccc34)NC(=O)CN)C(=O)NCC(=O)N[C@@H](Cc3ccccc3)C(=O)N[C@@H](Cc3ccccc3)C(=O)NCC(=O)NCC(=O)N[C@@H](CC(N)=O)C(=O)N[C@@H](CC(=O)O)C(=O)N[C@@H](CCC(=O)O)C(=O)N3CCC[C@H]3C(=O)N[C@H]3CSSC[C@H](NC1=O)C(=O)N[C@@H](CCCCN)C(=O)N[C@H](C(=O)N[C@@H](Cc1ccc(O)cc1)C(=O)O)CSSC[C@H](NC(=O)[C@H](Cc1c[nH]cn1)NC(=O)[C@H](CCC(N)=O)NC(=O)[C@H](Cc1c[nH]cn1)NC3=O)C(=O)N[C@@H](CCCCN)C(=O)N[C@@H](CO)C(=O)N[C@@H]([C@@H](C)CC)C(=O)N[C@@H](CCCNC(=N)N)C(=O)NCC(=O)N[C@@H](Cc1ccc(O)cc1)C(=O)N[C@@H](CCCNC(=N)N)C(=O)NCC(=O)NCC(=O)N[C@@H](Cc1ccc(O)cc1)C(=O)N2 [HCN2016-05] (H-GWGCGFFGGNDEPCHQHCKSIRGYRGGYCKFGGICKCY-OH; disulfide 4-29, 14-35, 18-37 (inferred); N-terminus and C-terminus assumed) | 1.44 µg/mL (≈ 0.344 µM) | improved antimicrobial activity | 2.88 µg/mL (≈ 0.688 µM) |  | 2.80 µg/mL (≈ 0.669 µM) |  | 2 |  |  |
| CC[C@H](C)[C@@H]1NC(=O)[C@H](CO)NC(=O)[C@H](CCCCN)NC(=O)[C@@H]2CSSC[C@@H](C(=O)N[C@@H](Cc3ccc(O)cc3)C(=O)O)NC(=O)[C@H](CCCCN)NC(=O)[C@@H]3CSSC[C@H](NC(=O)[C@@H]4CCCN4C(=O)[C@H](CCCCN)NC(=O)[C@H](CC(=O)O)NC(=O)[C@H](CC(N)=O)NC(=O)CNC(=O)CNC(=O)[C@H](Cc4c[nH]c5ccccc45)NC(=O)[C@H]([C@@H](C)CC)NC(=O)[C@H]([C@@H](C)O)NC(=O)[C@@H](NC(=O)CNC(=O)[C@H](Cc4ccccc4)NC(=O)CN)CSSC[C@H](NC(=O)[C@H](Cc4ccc(O)cc4)NC(=O)CNC(=O)CNC(=O)[C@H](CCCCN)NC(=O)[C@H](Cc4ccc(O)cc4)NC(=O)CNC(=O)[C@H](CCCCN)NC1=O)C(=O)N[C@@H](CCCCN)C(=O)N[C@@H](C(C)C)C(=O)NCC(=O)NCC(=O)N[C@@H](C(C)C)C(=O)N3)C(=O)N[C@@H](Cc1c[nH]cn1)C(=O)N[C@@H](CCCNC(=N)N)C(=O)N[C@@H](Cc1c[nH]cn1)C(=O)N2 [Hegrisin, reference compound] (H-GFGCTIWGGNDKPCHRHCKSIKGYKGGYCKVGGVCKCY-OH; disulfide 4-29, 14-35, 18-37; N-terminus and C-terminus assumed) | 1.67 µg/mL (≈ 0.407 µM) |  | 1.34 µg/mL (≈ 0.326 µM) |  | 0.38 µg/mL (≈ 0.0926 µM) |  | 1 | no significant lysis |  |
| plectasin: defensin antimicrobial peptide isolated from the mushroom Pseudoplectania nigrella; control in the hemolysis assay (GFGCNGPWDEDDMQCHNHCKSIKGYKGGYCAKGGFVCKCY; PLECTASIN) |  |  |  |  |  |  |  | lysis at nearly all concentrations | increased significantly |
